Measurements as given in article PMC4936777 (ACS chemical neuroscience, 2015).
Values after ≈ are worked out from the molar mass of the structure shown.

Key:
[1] = target: T1, horse spleen apoferritin (HSAF) (Equus caballus, UniProt P02791); test: 1-aminoanthracene; assay type: binding
T1 sequence (P02791 2-175 limits assumed): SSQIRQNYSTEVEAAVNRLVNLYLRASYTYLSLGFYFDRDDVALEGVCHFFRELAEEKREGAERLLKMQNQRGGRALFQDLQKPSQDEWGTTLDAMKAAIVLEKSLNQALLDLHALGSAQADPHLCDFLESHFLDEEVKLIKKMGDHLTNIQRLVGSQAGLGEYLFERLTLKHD

[2] = tested on: isolated, intact rat trabecular muscle; test: Force development of isolated intact trabecular muscle; conditions: 100 μM
C57/Bl6 mice = test: Pharmacological activity and EEG in mice after IV bolus; assay type: in vivo, mouse
α1β2γ2L GABAA receptor = α1β2γ2L GABAA receptor (Homo sapiens, UniProt P14867+P18507+P47870); test: Two electrode voltage clamp of GABAA receptors expressed in X. laevis oocytes; assay type: cell-based; conditions: for modulation of GABA EC10 current: coexposure with GABA EC10, −80 mV; for direct activation of the receptor in the absence of GABA: fropofol at 5 and 50 μM
[3] = target: T1, horse spleen apoferritin (HSAF); test: [3H]AziPm photolabel competition with HSAF; assay type: binding; conditions: One μM ligand
in vivo = conditions: C57/B6, mouse, iv
[4] = target: T1, horse spleen apoferritin (HSAF); test: Isothermal titration calorimetry with HSAF; assay type: binding
[5] = target: T2, human serum albumin (hSA) (Homo sapiens, UniProt P02768); conditions: single site binding model
[6] = target: T2, human serum albumin (hSA); test: biochemical
[7] = tested on: albino Xenopus laevis tadpoles; assay type: in vivo
[8] = target: human serum albumin (hSA) domain III (Homo sapiens, UniProt P02768); test: in vitro
physchem = assay type: physicochemical; conditions: water, thermodynamic from solid

CC(C)c1cccc(C(C)C)c1O [propofol, 2,6-diisopropylphenol, reference compound]
Kd [1]: 10 µM | depression (reduction) of maximum force development ([2]; room temperature): 49 ± 4% | loss of righting reflex in mice (C57/Bl6 mice; 20 mg/kg): produced | modulation of GABA EC10 current (α1β2γ2L GABAA receptor): concentration-dependent increase in current up to 80 μM | direct activation of the receptor in the absence of GABA (α1β2γ2L GABAA receptor): minor direct activation | reduction in [3H]AziPm binding to HSAF [3]: 31%

CC(C)c1cccc(C(C)C)c1F [fropofol, 2-fluoro-1,3-diisopropylbenzene]
concentration at 45 s (in vivo; 96 mg/kg): 38000 ng/g | concentration at 10 min (in vivo; 200 mg/kg): 51000 ng/g | Kd [4]: 1700 nM | fold increase in affinity for HSAF relative to propofol (ITC) ([4]; relative to propofol): 4- to 5 fold | stoichiometry n for hSA (ITC) [5]: 1.3 ± 0.9 | Kd [6]: 91 µM | Kd [1]: 0.7 µM | depression (reduction) of maximum force development ([2]; LBN/F1, rat): 35 ± 1% | loss-of-mobility endpoints in tadpoles ([7]; 3–100 μM, 60 and 90 min exposure): none of the X. laevis tadpoles within any dose group exhibited the standard loss-of-mobility endpoints | time to resume normal swimming behaviors after exchange for fresh pond water ([7]; albino, Xenopus laevis, in vivo): 10 to 15 min | inhibition at 75 µM [8]: 37 ± 12% | observable effects in mice (C57/Bl6 mice; 96 mg/kg, bolus tail vein injection, 10% lipid emulsion): no observable effects | toxicity in mice in the following days postinjection (C57/Bl6 mice; 180 mg/kg IV): no toxicity was observed | time to resume normal activity in mice (C57/Bl6 mice; C57/B6, mouse, in vivo): 2 to 3 h | EEG recording in mice (C57/Bl6 mice; mouse, in vivo): Phenotypical seizure activity | EEG recordings and physical observation in mice (C57/Bl6 mice; mouse, in vivo): generalized tonic-clonic seizure-like activity | loss of righting reflex in mice (C57/Bl6 mice; up to the highest dose): not with even the highest dose | effect on propofol positive modulation of the GABAA receptor (α1β2γ2L GABAA receptor; 50 μM fropofol, with GABA EC10 and propofol): no significant change | modulation of GABA EC10 current (α1β2γ2L GABAA receptor): no significant modulation or inhibition | direct activation of the receptor in the absence of GABA (α1β2γ2L GABAA receptor): no significant direct activation | effect on 5 μM propofol potentiation of GABAA receptor currents (α1β2γ2L GABAA receptor; saturating concentrations of fropofol, with GABA EC10): no significant alteration | reduction in [3H]AziPm binding to HSAF [3]: 61% | solubility at 24 h (physchem): 116 ± 4.4 µM (≈ 20.9 µg/mL)

NCCCC(=O)O [GABA, γ-Aminobutyric acid, reference compound]
Hill coefficient (α1β2γ2L GABAA receptor; GABA concentration–response, mean ± SEM): 0.87 ± 0.04
